Reference: ChEMBL document CHEMBL3507680, “University of Dundee, Gates Library screen for HepG2 cell viability”

Experiment: Human HepG2 cell viability assay in 384 well format
Format: toxicity, cell-based
Set-up: dose 125 nL, time 70.5 hour; concentration not given beside the values
Conditions: HepG2 cells, read-out: Inhibition

Cc1ccc(S(=O)(=O)N2CCCCC(N3CCN(C)CC3)C2)cc1F (stereo unspecified)
cytotoxicity at 70.5 h: -5.17%

CN(Cc1cnn(C)c1)Cc1nc(Cc2cccc(Cl)c2)no1
cytotoxicity at 70.5 h: -7.96%

COCCSCC(=O)NC1(c2cccc(Br)c2)CC1
cytotoxicity at 70.5 h: -2.67%

Cc1cc(C(=O)NCc2ccccc2CN(C)Cc2ccco2)on1
cytotoxicity at 70.5 h: 9.59%

CCN1CCN(c2ccc(F)cc2C(C)NCc2ccccn2)CC1 (stereo unspecified)
cytotoxicity at 70.5 h: 13.7%

COc1ccc(OC)c(C(C)NC(=O)Nc2nnc(C)s2)c1 (stereo unspecified)
cytotoxicity at 70.5 h: -5.29%

COc1ccc(C(C)NC(=O)Nc2nnc(C)s2)c(OC)c1 (stereo unspecified)
cytotoxicity at 70.5 h: -4.87%

CC(C)(C)OC(=O)NCCNC(=O)c1cnc(-c2ccccc2)nc1
cytotoxicity at 70.5 h: -0.668%

CN(C)C(=O)CCNC(=O)c1cnc(-c2ccccc2)nc1
cytotoxicity at 70.5 h: -5.51%

CC1CN(C(=O)c2ccn(C)c(=O)c2)c2ccccc2NC1=O (stereo unspecified)
cytotoxicity at 70.5 h: -2.71%

CN(CCc1nccs1)C(=O)C1(C#N)CCCCC1
cytotoxicity at 70.5 h: 0.343%

Cc1cc(F)ccc1N1CCCC(NC2CCSCC2)C1=O (stereo unspecified)
cytotoxicity at 70.5 h: -2.24%

O=C(NCCC1CCN(CC(F)(F)F)CC1)C1CCCO1 (stereo unspecified)
cytotoxicity at 70.5 h: -1.77%

CCS(=O)(=O)NC1CCCN(c2ccc(F)cc2C)C1=O (stereo unspecified)
cytotoxicity at 70.5 h: -3.11%

CN(CC(=O)N(CCC#N)c1ccccc1)C1CCc2ccccc21 (stereo unspecified)
cytotoxicity at 70.5 h: 5.13%

Cc1ccc(CCC(C)NC2CCN(C(N)=O)CC2)cc1 (stereo unspecified)
cytotoxicity at 70.5 h: -1.06%

Oc1ccc(N(CCc2ccccc2)CCn2cncn2)cc1
cytotoxicity at 70.5 h: 7.13%

CC(C)(C)CN(CCC#N)Cn1cc(Cl)cn1
cytotoxicity at 70.5 h: -3.15%

CCc1nc(C2CCCN(c3ncccn3)C2)no1 (stereo unspecified)
cytotoxicity at 70.5 h: -2.54%

COC(=O)c1ccccc1NS(=O)(=O)c1c(C)nn(C)c1C
cytotoxicity at 70.5 h: -6.21%

Cn1cc(CCNC(=O)C2(c3cccc(Cl)c3)CC2)cn1
cytotoxicity at 70.5 h: -18.4%

CCCOC1CCCN(C(=O)c2csc(S(N)(=O)=O)c2)C1 (stereo unspecified)
cytotoxicity at 70.5 h: 9.57%

O=C(NCCCn1ccnc1)Nc1ccn(CCc2ccccn2)n1
cytotoxicity at 70.5 h: -5.67%

CCN1CCOC(CNc2nccc(C(F)(F)F)n2)C1 (stereo unspecified)
cytotoxicity at 70.5 h: -6.79%

CCN(C(=O)c1ccc2nncn2c1)C(C)Cc1ccc(OC)cc1 (stereo unspecified)
cytotoxicity at 70.5 h: -5.25%

c1cnn(C2CN(CCCOc3ccc4c(c3)OCO4)C2)c1
cytotoxicity at 70.5 h: 11.1%

COCCCn1ccc(NC(=O)NCCn2ccnc2)n1
cytotoxicity at 70.5 h: -8.92%

OC(COc1ccc2c(c1)OCO2)CN1CC(n2cccn2)C1 (stereo unspecified)
cytotoxicity at 70.5 h: -3.37%

CN(C)c1ccc(CCCNC(=O)NCC(O)c2cccs2)cc1 (stereo unspecified)
cytotoxicity at 70.5 h: -8.37%

CCOc1ccc(OC2CCCN(c3cnn(C)c3)C2=O)cc1 (stereo unspecified)
cytotoxicity at 70.5 h: 10.6%

Cc1noc(-c2ccnc(N3CCCN(C4CCOCC4)CC3)c2)n1
cytotoxicity at 70.5 h: -3.75%

Cn1cc(CCCNC(=O)NCC(O)c2ccsc2)cn1 (stereo unspecified)
cytotoxicity at 70.5 h: -2.64%

CS(=O)(=O)Cc1ccc(NC(=O)c2cccnc2)cc1F
cytotoxicity at 70.5 h: -6.22%

CC(C)(C)n1ncc2c(=O)[nH]c(NC3CC=CC3)nc21
cytotoxicity at 70.5 h: 0.3%

CC(C)Cn1cc(NC(=O)NCC2CCN(c3ccccc3)C2)cn1 (stereo unspecified)
cytotoxicity at 70.5 h: -0.00229%

CCOC1CCCN(C(=O)c2[nH]nc(C)c2Br)C1 (stereo unspecified)
cytotoxicity at 70.5 h: -11.5%

CCOC(C)C(=O)Nc1ccc(Sc2nncn2C)c(Cl)c1 (stereo unspecified)
cytotoxicity at 70.5 h: -4.37%

CCN1CCOC(CNc2nccc(OC)n2)C1 (stereo unspecified)
cytotoxicity at 70.5 h: -5.64%

CC(C)COC(C)C(=O)N1CCCC1 (stereo unspecified)
cytotoxicity at 70.5 h: -7.16%

CCc1nc(C2CCCN(c3nccc(C)n3)C2)no1 (stereo unspecified)
cytotoxicity at 70.5 h: -12.5%

O=C(NCCCO)Nc1ccccc1
cytotoxicity at 70.5 h: 3.04%

O=S1(=O)CCC(CNS(=O)(=O)N2CCc3ccccc3C2)C1 (stereo unspecified)
cytotoxicity at 70.5 h: 1.82%

COc1ccc(NC(=O)CSC(F)(F)F)cn1
cytotoxicity at 70.5 h: 9.73%

Cc1nc(C(C)(C)C)sc1C(=O)NCCn1ccnc1
cytotoxicity at 70.5 h: -7.91%

O=C(NCCNc1ncccn1)c1scnc1Cl
cytotoxicity at 70.5 h: 9.91%

Cc1nc(C(C)C)sc1C(=O)NCCn1ccnc1
cytotoxicity at 70.5 h: -7.02%

CC(C)(C)CCNC(=O)c1ccc(Cl)c(NS(C)(=O)=O)c1
cytotoxicity at 70.5 h: 8.13%

O=C(NCCCO)Nc1cccc(I)c1
cytotoxicity at 70.5 h: -5.84%

O=C(C[S+]([O-])Cc1cccc(F)c1)NC1CCCC1 (stereo unspecified)
cytotoxicity at 70.5 h: 0.67%

COc1ccc(-c2ccc(C(=O)NCCCC(N)=O)c(F)c2)c(F)c1
cytotoxicity at 70.5 h: -3.05%

O=C(NCCCO)Nc1cccc(C[S+]([O-])Cc2ccccc2)c1 (stereo unspecified)
cytotoxicity at 70.5 h: -4.46%

Cc1cccc(C(C)(C)NC(=O)CCS(C)(=O)=O)c1
cytotoxicity at 70.5 h: -3.08%

COc1ccc(-c2ccc(C(=O)NS(C)(=O)=O)c(F)c2)cc1
cytotoxicity at 70.5 h: -5.82%

CCN(C)S(=O)(=O)NCC1(c2cccc(Br)c2)CC1
cytotoxicity at 70.5 h: -1.33%

O=C1CCC(=O)N1CCN1CCC(=Cc2ccccc2)CC1
cytotoxicity at 70.5 h: -0.346%

Cc1nn(C)c(C)c1NC(=O)CNc1cc(C(F)(F)F)ccc1F
cytotoxicity at 70.5 h: 25%

CSc1ccc(NCC(=O)Nc2c(C)nn(C)c2C)cc1F
cytotoxicity at 70.5 h: -4.28%

CNC(=O)CN1CCCC1c1ccccc1Br (stereo unspecified)
cytotoxicity at 70.5 h: -6.18%

CNC(=O)NC(=O)CN1CCN(CC(F)(F)F)CC1(C)C
cytotoxicity at 70.5 h: -4.26%

CC1(C)CN(CC(F)(F)F)CCN1CC(=O)N1CCCCC1
cytotoxicity at 70.5 h: 11.7%

Cc1nn(C)c(C)c1CCC(=O)OCC(=O)N1CCc2sccc2C1
cytotoxicity at 70.5 h: 20.5%

O=S(=O)(NCc1cccnc1OC1CCCC1)N1CCOCC1
cytotoxicity at 70.5 h: -10.2%

N#CCCN1CCC(=Cc2ccccc2)CC1
cytotoxicity at 70.5 h: -6.02%

O=S(=O)(NCc1cccnc1OC1CCCC1)N1CCCCC1
cytotoxicity at 70.5 h: 0.259%

CCCc1nc(C)c(C(=O)NCCn2ccnc2)s1
cytotoxicity at 70.5 h: -7.16%

Cc1cc(C)n(CCC(=O)OCC(=O)N2CCc3sccc3C2)n1
cytotoxicity at 70.5 h: -4.48%

CC1(C)CN(CC(F)(F)F)CCN1CC(=O)NC1CCCC1
cytotoxicity at 70.5 h: -4.28%

CCc1nonc1NC(=O)C(C)Oc1ccccc1F (stereo unspecified)
cytotoxicity at 70.5 h: -10.4%

CCC(NCc1nccn1C)c1nc(C(F)(F)F)cs1 (stereo unspecified)
cytotoxicity at 70.5 h: -0.765%

Cc1cccc2c(CCNC(=O)NCCC[S+](C)[O-])c[nH]c12 (stereo unspecified)
cytotoxicity at 70.5 h: -1.72%

CC(C#N)(NC(=O)COc1ccccc1Br)C1CC1 (stereo unspecified)
cytotoxicity at 70.5 h: 8.66%

Cc1nn(C)c(C)c1CC(=O)NCc1cccnc1OC1CCCC1
cytotoxicity at 70.5 h: -3.95%

Cc1nn(C)c(C)c1C(=O)NCc1cccnc1OC1CCCC1
cytotoxicity at 70.5 h: -5.73%

COc1ccc(Cl)cc1-c1cc(NC(=O)C2COCCO2)[nH]n1 (stereo unspecified)
cytotoxicity at 70.5 h: -4.84%

CC(C(=O)Nc1ncccn1)N1CCC(n2ccnc2)CC1 (stereo unspecified)
cytotoxicity at 70.5 h: -4.52%

Cc1cccc(C2(O)CCN(C(=O)c3ccccn3)CC2)c1C
cytotoxicity at 70.5 h: 1.09%

CS(=O)(=O)NCc1ccc(NC(=O)CC2=CCCCC2)cc1
cytotoxicity at 70.5 h: -0.966%

COc1ccc(CN2CCC(C(N)=O)CC2)cc1SC(F)(F)F
cytotoxicity at 70.5 h: 5.97%

Cc1cc(C(C)(O)CNC(=O)C2(C)CCCC2)c(C)o1 (stereo unspecified)
cytotoxicity at 70.5 h: -0.0569%

Cc1ccc2c(c1)OCCCC2NC1CCN(C)CC1 (stereo unspecified)
cytotoxicity at 70.5 h: -0.243%

CCS(=O)(=O)NCCNCc1cc(F)ccc1Br
cytotoxicity at 70.5 h: 14.4%

Cc1nc(-c2cccc(C(=O)N(C)CC(C)O)c2)cs1 (stereo unspecified)
cytotoxicity at 70.5 h: 0.422%

CCCNC(=O)C1CCCN(Cc2ccc(-n3cncn3)c(C)c2)C1 (stereo unspecified)
cytotoxicity at 70.5 h: -1.68%

COc1ccc(C(C)Nc2ncc(C(N)=O)cc2Cl)cc1F (stereo unspecified)
cytotoxicity at 70.5 h: -10.7%

Cc1nn2c(nc1=O)-c1ccccc1NC2C(=O)O (stereo unspecified)
cytotoxicity at 70.5 h: -9.44%

O=C(CC1CCCO1)Nc1ccc2c(ccn2CCN2CCOCC2)c1 (stereo unspecified)
cytotoxicity at 70.5 h: -8.05%

CN(Cc1ccccc1O)C(=O)Nc1cc(F)cc(N2CCCC2)c1
cytotoxicity at 70.5 h: -7.37%

O=C(Cc1ccccc1O)Nc1ccc(N2CCCC2)nc1
cytotoxicity at 70.5 h: -10.3%

Cc1cc(CS(=O)(=O)NCC2CCCCC2)on1
cytotoxicity at 70.5 h: 0.508%

COCCS(=O)(=O)NCC(C)c1cccc(C)c1 (stereo unspecified)
cytotoxicity at 70.5 h: -3.93%

CN(Cc1cnccn1)C(=O)Nc1cc(F)cc(N2CCCC2)c1
cytotoxicity at 70.5 h: -5.64%

Cc1cc(C(=O)NCC(=O)NC(c2ncccc2C)C(C)C)c(C)o1 (stereo unspecified)
cytotoxicity at 70.5 h: 3.7%

CN1CCc2c(NC(=O)NCc3ccccc3Cl)cccc21
cytotoxicity at 70.5 h: -1.74%

Cc1cc(N2CCC(NC(=O)CCc3cnn(C)c3)CC2)nc(C)n1
cytotoxicity at 70.5 h: -4.77%

C[C@@H]1CN(C(=O)c2ccc(Br)cc2F)CC(C(N)=O)O1 (stereo partly specified)
cytotoxicity at 70.5 h: -4.88%

COc1cc(C)c(NC(=O)NCCn2cccc2)cc1OC
cytotoxicity at 70.5 h: 10.3%

Cc1cccc(NS(=O)(=O)c2cnn(C)c2)c1C#N
cytotoxicity at 70.5 h: -12.8%

Cc1c(CNC(=O)Nc2cccc3c2CCN3C)cnn1C
cytotoxicity at 70.5 h: -3.95%

N#Cc1ccc(S(=O)(=O)Nc2ccccc2C#N)cn1
cytotoxicity at 70.5 h: -6%

COCCCS(=O)(=O)N1CCN(C(=O)CO)CC1
cytotoxicity at 70.5 h: -0.333%

CC(C)OCCC(=O)N(C)c1ccc(F)c(Cl)c1
cytotoxicity at 70.5 h: -4.66%

CCn1cc(C2CCN(Cc3ccnc(N(C)C)c3)CC2)cn1
cytotoxicity at 70.5 h: -4.12%

c1csc(-c2noc(CC3CCCO3)n2)c1 (stereo unspecified)
cytotoxicity at 70.5 h: 6.86%

CN(C)S(=O)(=O)c1ccc(CNc2ccc(Cl)cn2)cc1
cytotoxicity at 70.5 h: 0.742%

CCCn1ccc2cc(NC(=O)CC3CCCO3)ccc21 (stereo unspecified)
cytotoxicity at 70.5 h: -5.13%

CC(C)C(=O)N1CCN(CC(O)c2cc(Cl)ccc2Cl)CC1 (stereo unspecified)
cytotoxicity at 70.5 h: -7.34%

OC(CN1CCOCC1)c1cc(Cl)ccc1Cl (stereo unspecified)
cytotoxicity at 70.5 h: 9.36%

CN1CCCN(C(=O)c2ccn3ccnc3c2)CC1
cytotoxicity at 70.5 h: 6.21%

O=C(c1ccncc1)N1CCCC1c1cccc(Br)c1 (stereo unspecified)
cytotoxicity at 70.5 h: 21.6%

O=C(c1ccnc(NC2CC2)c1)N1CCCC1c1cccc(Br)c1 (stereo unspecified)
cytotoxicity at 70.5 h: -6.56%

CCc1cccc(OCC(=O)NC(C)c2nnc3n2CCC3)c1 (stereo unspecified)
cytotoxicity at 70.5 h: -3.83%

Cc1cccc(C)c1OCC(=O)NC(C)c1nnc2n1CCC2 (stereo unspecified)
cytotoxicity at 70.5 h: -7.81%

CCN(C(=O)CCc1ccc2c(c1)OCO2)C1CC(=O)NC1=O (stereo unspecified)
cytotoxicity at 70.5 h: 6.1%

CC(NC(=O)COc1ccccc1Cl)c1nnc2n1CCC2 (stereo unspecified)
cytotoxicity at 70.5 h: -6.92%

CN(C)C(=O)C1CSCN1C(=O)CCc1ccco1 (stereo unspecified)
cytotoxicity at 70.5 h: -8.81%

COCCNC(=O)N1CCN(C(=O)Cc2ccccc2F)CC1
cytotoxicity at 70.5 h: -8.11%

CC(C)c1nnc2n1CCN(Cc1nc3c(F)cccc3[nH]1)C2
cytotoxicity at 70.5 h: -5.06%

CN(CCc1cccs1)C(=O)Nc1cccc(S(C)(=O)=O)c1
cytotoxicity at 70.5 h: -2.36%

COCC(C)(NC(=O)c1cc(Cl)c(-n2cccc2)cc1OC)C(N)=O (stereo unspecified)
cytotoxicity at 70.5 h: -2.57%

Fc1cccc2[nH]c(CN3CCn4c(nnc4C4CC4)C3)nc12
cytotoxicity at 70.5 h: 1.58%

Cc1nc(S(=O)(=O)N2CCSCC2)cn1C
cytotoxicity at 70.5 h: -2.15%
